“And” between values parts separate entries of the source, which are not always exact repeats. Equal values may be shown once.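 Method: 48-hour compound exposure of cells in 96-well plates, five concentrations, linear interpolation of endpoints. GI50 is the concentration that inhibits growth by half. Definition used: TGI = concentration required for complete inhibition of growth.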
Columns and labels:
Test in all cases: inhibition of tumour cell growth, NCI panel, 48 h
PC-3 prostate = test system: PC-3 prostate
NCI-H226 lung = test system: NCI-H226 lung
LOX IMVI melanoma = test system: LOX IMVI melanoma
UO-31 renal = test system: UO-31 renal
RPMI-8226 leukemia = test system: RPMI-8226 leukemia
HCC-2998 colon = test system: HCC-2998 colon
SF-539 CNS = test system: SF-539 CNS
TK-10 renal = test system: TK-10 renal
HT29 colon = test system: HT29 colon
SNB-75 CNS = test system: SNB-75 CNS

SMILES	GI50 (PC-3 prostate) [µM]	TGI (PC-3 prostate) [µM]	GI50 (NCI-H226 lung)	TGI (NCI-H226 lung)	GI50 (LOX IMVI melanoma) [µM]	TGI (LOX IMVI melanoma)	GI50 (UO-31 renal) [µM]	TGI (UO-31 renal)	GI50 (RPMI-8226 leukemia) [µM]	TGI (RPMI-8226 leukemia)	GI50 (HCC-2998 colon) [µM]	TGI (HCC-2998 colon)	GI50 (SF-539 CNS) [µM]	TGI (SF-539 CNS)	GI50 (TK-10 renal) [µM]	TGI (TK-10 renal) [µM]	GI50 (HT29 colon)	GI50 (SNB-75 CNS) [µM]	TGI (SNB-75 CNS)	TGI (HT29 colon)
CCOC(=O)c1cc(C(=O)c2cc(OC)c(OC)c(OC)c2)n2c1ccc1ccccc12	0.294	> 100	1.23 µM	> 100 µM	0.669	> 100 µM	0.502	> 100 µM	0.378	> 100 µM	0.514	> 100 µM	0.216	0.723 µM	2.37	> 100	0.254 µM	0.0599	0.617 µM	–
COc1cc2c(cc1Cc1cccc(Cl)c1F)c(=O)c(C(=O)O)cn2[C@@H](CO)C(C)C	2.59	9.21	5.68 µM	23.6 µM	2.69	10.1 µM	2.62	11.9 µM	3.36	12.5 µM	3.13	11.6 µM	3.39	10.7 µM	–	–	2.62 µM	2.53	13.7 µM	5.56 µM
S=C(NCCNC(=S)[S][Sn]([c]1ccccc1)([c]1ccccc1)[c]1ccccc1)[S][Sn]([c]1ccccc1)([c]1ccccc1)[c]1ccccc1	0.0311	0.153	0.0639 µM	0.144 µM	0.0152	0.0541 µM	0.0337	0.1 µM	0.0234	0.147 µM	0.0219	0.0764 µM	0.0682	0.203 µM	0.0612	0.126	0.019 µM	0.0162	0.087 µM	0.0584 µM
CC1=CCCC2C1(C)CCC(C)C2(C)Cc1cc(O)ccc1O (stereo unspecified)	–	18.1	5.5 µM	27.2 µM and 15.8 µM	3.6	16.2 µM and 16.3 µM	–	19.1 µM and 15.4 µM	–	9.97 µM and 8.53 µM	15.6	30 µM and 24.6 µM	11.1	26.3 µM and 23.6 µM	–	25.5	14.2 µM	–	20.5 µM and 21.7 µM	29.6 µM and 37.1 µM
COC(=O)C1=CO[C@@H](OC2OC(CO)C(O)C(O)C2O)[C@H]2[C@@H](C)[C@@H](O)[C@@H](O)[C@@H]12 (stereo partly specified)	–	> 100	–	> 100 µM	–	> 100 µM	–	> 100 µM	–	> 100 µM	–	> 100 µM	–	> 100 µM	–	> 100	–	–	> 100 µM	> 100 µM
Cc1ccc(-c2cc3c4c(nc5ccccc53)C(=O)c3cccnc3-c4n2)cc1	17.3	> 83.8	56.4 µM	> 100 µM	3.4	14.5 µM	17.1	> 82.6 µM	4.18	54.9 µM	17.2	33.2 µM	6.68	26.7 µM	26.4	97.3	8.75 µM	13.1	> 53.6 µM	22.8 µM
CC(C)(C)[Si](C)(C)OC1[C@@H](O[Si](C)(C)C(C)(C)C)[C@@H](CNC(=O)NC(=O)CF)O[C@H]1n1cnc2c(NC(=O)Nc3ccccc3)ncnc21 (stereo partly specified)	2.19	> 50	5.5 µM	> 50 µM	6.14	12.5 µM	11.2	> 50 µM	14	> 50 µM	9.23	31.3 µM	14.5	> 50 µM	16.5	41.7	7.35 µM	8.45	> 50 µM	25.9 µM
C=C1C(=O)O[C@H]2[C@H]1CC/C(C=Nc1c(N)cc(C(F)(F)F)cc1C(F)(F)F)=C\CC[C@@]1(C)O[C@@H]21	1.54	4.4	1.43 µM	4.11 µM	1.07	2.3 µM	1.07	2.38 µM	0.441	3.26 µM	1.69	3.3 µM	–	–	1.38	2.69	1.13 µM	1.78	15.4 µM	3.1 µM
O=c1[nH]c(=O)c2cc3cc(C4CC(O)C(CO)O4)ccc3cc2[nH]1 (stereo unspecified)	> 100	> 100	> 100 µM	> 100 µM	> 100	> 100 µM	8.48	67 µM	> 100	> 100 µM	> 100	> 100 µM	> 100	> 100 µM	–	–	> 100 µM	34.5	> 100 µM	> 100 µM
N#Cc1c(N)n2c(nc1=Nc1ccc(Cl)cc1)sc1cc(Cl)ccc12	4.65	–	6.71 µM and 2.39 µM	9 µM	13.5	> 100 µM	–	–	1.26	9.27 µM	2.23	8.94 µM	8.7	> 100 µM	15	> 100	5.67 µM and 3.77 µM	5.07	> 100 µM	> 100 µM
N/C(=N/N=C/c1ccccc1)N/N=C\c1ccccc1	6.21	> 100	12.3 µM	> 100 µM	6.27	84.7 µM	5.1	78.3 µM	5.21	29.7 µM	7.21	37.8 µM	–	–	10.7	> 100	3.25 µM	9.67	> 100 µM	52 µM
Cc1cc(Nc2ncc3c(n2)N(C)C(=O)N(c2cc(NC(=O)c4cccc(C(F)(F)F)c4)ccc2C)C3)n(C)n1	0.105	> 31.6	0.0387 µM	> 100 µM	0.0131	0.0305 µM	0.0583	0.322 µM	0.641	18.6 µM	0.541	> 46.4 µM	0.0621	0.68 µM	–	–	0.023 µM	0.0217	0.0699 µM	0.0864 µM

Reference: PubChem BioAssay (NCI)
